According to US10363239B2, “Method for inhibiting growth of cancer cells” (Pain Therapeutics, Inc., priority 2013, dated 2019):

Tests used:
[1] = test system: glioblastoma cells; experiment: [3H]thymidine incorporation; format: cell-based, human; conditions: 0.1-5 nM; 96 hours
Procedure: (§1) The effect of Compound C0105 on cell proliferation was determined by the level of [^3H]thymidine incorporation in glioblastoma, melanoma and small-cell lung carcinoma cells. Cells contacted with vehicle or 0.1-5 nM Compound C0105 were incubated with 5 μCi/ml of [^3H]thymidine for 96-hours. Cells were washed and the cell content of [^3H]thymidine was quantified using scintillation spectrometry. […] N=4. **p<0.05, *p<0.01 compared to vehicle (open bars).

[2] = test system: melanoma cells; experiment: [3H]thymidine incorporation; format: cell-based, human; conditions: 0.1-5 nM; 96 hours
Procedure: as §1

[3] = test system: small-cell lung carcinoma cells; experiment: [3H]thymidine incorporation; format: cell-based, human; conditions: 0.1-5 nM; 96 hours
Procedure: as §1

[4] = test system: pS2152FLNA, FLNA-associated PTEN and PP2A in glioblastoma cells; experiment: pS2152FLNA and FLNA-associated PTEN and PP2A in anti-FLNA immunoprecipitate (Western blotting); format: cell-based, human; conditions: 0.1-5 nM; 4 days
Procedure: (§2) The effect of Compound C0105 on the levels of pS^2152FLNA and FLNA-associated phosphatases, PTEN and PP2A subclasses was determined in glioblastoma cells. Cells were treated with vehicle and 0.1-5 nM Compound C0105 for 4 days. Cells were washed and solubilized, and the resultant cell lysate was immunoprecipitated with anti-FLNA. The levels of pS^2152FLNA and FLNA-associated phosphatases, PTEN and PP2A subclasses in the anti-FLNA immunoprecipitate were determined by Western blotting. The density of protein bands was quantified by densitometric scan. […] N=4. **p<0.05, *p<0.01 compared to vehicle (open bars). […]
(§3) The cell lysates were diluted 5-fold with immunoprecipitation buffer and immunoprecipitated with anti-FLNA, -Akt, -mTOR and -ERK2 as described previously [Talbot et al., J Clin Inv 122(4):1-23 (2012); Wang et al., J Neurosci 32(29):9773-9784 (2012)]. The levels of FLNA linkages, activated phosphorylated Akt (pS^473 and pT^308), phosphorylated mTOR (pS^2448) and phosphorylated ERK2 (pY/pT) were determined in anti-FLNA, -Akt, -mTOR and -ERK2 immunoprecipitates by Western blotting with appropriate antibodies directed against PTEN, PP2A, K-RAS, ras-GAP (FLNA linkages), pS^473Akt, pT^308Akt, pS^2448mTOR and pY/pT ERK2 (activation of Akt, mTOR and ERK2).

[5] = test system: pS2152FLNA, FLNA-associated PTEN and PP2A in melanoma cells; experiment: as above; format: cell-based, human; conditions: 0.1-5 nM; 4 days
Procedure: as §2, with “melanoma” for “glioblastoma”, “washed, solubilized” for “washed and solubilized,”, “scanning.” for “scan.”
as §3

[6] = test system: pS2152FLNA, FLNA-associated PTEN and PP2A in pancreatic cancer MiaPaCa2 cells; experiment: as above; format: cell-based, human; conditions: 0.1-5 nM; 4 days
Procedure: (§4) The effect of contact with Compound C0105 on the levels of pS^2152FLNA and FLNA-associated phosphatases, PTEN and PP2A subclasses was determined in MiaPaCa2 and HPECs. Cells were contacted with vehicle and 0.1-5 nM Compound C0105 for 4 days. Cells were washed, solubilized and the cell lysate derived was immunoprecipitated with anti-FLNA. The levels of […] and FLNA-associated phosphatases, PTEN and PP2A subclasses in the anti-FLNA immunoprecipitate were determined by Western blotting. The density of protein bands was quantified by densitometric scan. […] Data are expressed as mean±S.E.M. of ratios (FIGS. 27C, 27E and 27G) and percentage inhibition (FIGS. 27D, 27F and 27H). […] N=4. **p<0.05, *p<0.01 compared to vehicle (open bars). […]
as §3

[7] = test system: pS2152FLNA, FLNA-associated PTEN and PP2A in primary human pancreatic epithelial cells (HPEC); experiment: as above; format: cell-based; conditions: 0.1-5 nM; 4 days
Procedure: as §4, §3

[8] = test system: FLNA-bound K-ras and ras-GAP in BxPc3 cells; experiment: FLNA-bound K-ras and ras-GAP (immunoprecipitation, Western blotting); format: cell-based, human; conditions: 0.1, 0.5, 1 and 5 nM
Procedure: (§5) Thus, melanoma, two different pancreatic cancerous cell lines (MiaPaCa2 and BxPc3) and a glioblastoma cell line (U87) were treated with zero (vehicle), 0.1, 0.5, 1 and 5 nM Compound C0105 as previously discussed, and FLNA-bound K-ras and ras-GAP were immunoprecipitated, separated by Western blotting and the blot densities determined as discussed previously.
(§6) To study the effect of Compound C0105 on pS^2152FLNA levels, FLNA linkages to key regulators including protein phosphatases as well as activated Akt (pS^473-, pT^308-Akt), mTOR ([…]) and ERK (pY/pT-ERK) levels, the cancer and normal cells were cultured to approximately 90% confluency and treated with vehicle or varying concentrations of Compound C0105. The cells were washed with warm phosphate-buffered saline (PBS), pH 7.2, dissociated, homogenized by sonication and solubilized using 0.5% NP-40 (nonoxynol 40), 0.2% sodium cholate and 0.5% digitonin for 1 hour at 4° C.
as §3

[9] = test system: FLNA-bound K-ras and ras-GAP in MiaPaCa2 cells; experiment: as above; format: cell-based, human; conditions: 0.1, 0.5, 1 and 5 nM
Procedure: as §5, §6, §3

[10] = test system: FLNA-bound K-ras and ras-GAP in glioblastoma cell line (U87); experiment: as above; format: cell-based, human; conditions: 0.1, 0.5, 1 and 5 nM
Procedure: as §5, §6, §3

[11] = test system: FLNA-bound K-ras and ras-GAP in melanoma cells; experiment: as above; format: cell-based, human; conditions: 0.1, 0.5, 1 and 5 nM
Procedure: as §5, §6, §3

**Q.** What does the source list for `CN1CCC2(CC1)NCC(=O)N2Cc1ccccc1` [Compound C0105]?
**A.** Cell proliferation by [3H]thymidine incorporation [1]: reduces glioblastoma, melanoma and small-cell lung carcinoma cell proliferation; Cell proliferation by [3H]thymidine incorporation [2]: reduces glioblastoma, melanoma and small-cell lung carcinoma cell proliferation; Cell proliferation by [3H]thymidine incorporation [3]: reduces glioblastoma, melanoma and small-cell lung carcinoma cell proliferation; FLNA-associated PTEN and PP2A levels [4]: increases FLNA-associated PTEN and PP2A levels; pS2152FLNA level [4]: reduces pS^2152FLNA; FLNA-associated PTEN and PP2A levels [5]: increases FLNA-associated PTEN and PP2A levels; pS2152FLNA level [5]: reduces pS^2152FLNA; FLNA-associated PTEN and PP2A levels [6]: increases FLNA-associated PTEN and PP2A levels; pS2152FLNA level [6]: reduces pS^2152FLNA; Phosphatase (PTEN, PP2A) associations with FLNA [7]: no effect; pS2152FLNA level [7]: no effect; FLNA-bound K-ras [8]: reduces K-ras; FLNA-bound Ras-GAP [8]: increases Ras-GAP; FLNA-bound K-ras [9]: reduces K-ras; FLNA-bound Ras-GAP [9]: increases Ras-GAP; FLNA-bound K-ras [10]: reduces K-ras; FLNA-bound Ras-GAP [10]: increases Ras-GAP; FLNA-bound K-ras [11]: reduces K-ras; FLNA-bound Ras-GAP [11]: increases Ras-GAP
